Reference: the NIST ThermoML archive (doi:10.1016/j.jct.2006.02.001)
“And” between values parts separate entries of the source, which are not always exact repeats. Identical values can stand only once.

Tests used:
[1] = 101 kPa, Liquid
[2] = refractive index (Na D-line) (dimensionless); details: 101.33 kPa, Liquid
[3] = xn = mol fraction of the nth substance listed; details: 101 kPa, Liquid
[4] = refractive index (Na D-line) (dimensionless); xn = mol fraction of the nth substance listed; details: 101 kPa, Liquid

Cc1ccc(C)cc1 [1,4-dimethylbenzene]
Details	mass density, 288.15 K [kg/m3]	mass density, 293.15 K [kg/m3]	mass density, 298.15 K [kg/m3]	mass density, 303.15 K [kg/m3]	refractive index, 288.15 K	refractive index, 293.15 K	refractive index, 298.15 K	refractive index, 303.15 K
[1]	865.25	860.92	856.62	852.25	–	–	–	–
[2]	–	–	–	–	1.4983	1.4958	1.4929	1.4915

Cc1ccccc1C [1,2-dimethylbenzene]
Details	mass density, 288.15 K [kg/m3]	mass density, 293.15 K [kg/m3]	mass density, 298.15 K [kg/m3]	mass density, 303.15 K [kg/m3]	refractive index, 288.15 K	refractive index, 293.15 K	refractive index, 298.15 K	refractive index, 303.15 K
[1]	883.29	879.08	875.53	870.73	–	–	–	–
[2]	–	–	–	–	1.5072	1.5047	1.5018	1.5

Cc1ccccc1 [toluene]
Details	mass density, 288.15 K [kg/m3]	mass density, 293.15 K [kg/m3]	mass density, 298.15 K [kg/m3]	mass density, 303.15 K [kg/m3]	refractive index, 288.15 K	refractive index, 293.15 K	refractive index, 298.15 K	refractive index, 303.15 K
[1]	871.41	866.87	862.2	857.46	–	–	–	–
[2]	–	–	–	–	1.4996	1.497	1.4944	1.4918

Cc1cc(C)cc(C)c1 [1,3,5-trimethylbenzene]
Details	mass density, 288.15 K [kg/m3]	mass density, 293.15 K [kg/m3]	mass density, 298.15 K [kg/m3]	mass density, 303.15 K [kg/m3]	refractive index, 288.15 K	refractive index, 293.15 K	refractive index, 298.15 K	refractive index, 303.15 K
[1]	869.17	865.07	861.06	856.95	–	–	–	–
[2]	–	–	–	–	1.5045	1.4993	1.4976	1.4948

c1ccccc1 [benzene]
Details	mass density, 288.15 K [kg/m3]	mass density, 293.15 K [kg/m3]	mass density, 298.15 K [kg/m3]	mass density, 303.15 K [kg/m3]	refractive index, 288.15 K	refractive index, 293.15 K	refractive index, 298.15 K	refractive index, 303.15 K
[1]	884.11	876.53	873.6	868.23	–	–	–	–
[2]	–	–	–	–	1.505	1.5011	1.4979	1.4849

Cc1cccc(C)c1 [1,3-dimethylbenzene]
Details	mass density, 288.15 K [kg/m3]	mass density, 293.15 K [kg/m3]	mass density, 298.15 K [kg/m3]	mass density, 303.15 K [kg/m3]	refractive index, 288.15 K	refractive index, 293.15 K	refractive index, 298.15 K	refractive index, 303.15 K
[1]	868.32	864.05	859.77	855.47	–	–	–	–
[2]	–	–	–	–	1.4997	1.4973	1.4944	1.4925

COc1ccccc1 [anisole]
Details	mass density, 288.15 K [kg/m3]	mass density, 293.15 K [kg/m3]	mass density, 298.15 K [kg/m3]	mass density, 303.15 K [kg/m3]	refractive index, 288.15 K	refractive index, 293.15 K	refractive index, 298.15 K	refractive index, 303.15 K
[1]	998.44	993.65	989.15	984.37	–	–	–	–
[2]	–	–	–	–	1.5256	1.5172 and 1.5169	1.5141	1.5117

COc1ccccc1 [anisole] + Cc1ccccc1
Details	mass density, 288.15 K [kg/m3]	mass density, 293.15 K [kg/m3]	mass density, 298.15 K [kg/m3]	mass density, 303.15 K [kg/m3]	refractive index, 288.15 K	refractive index, 293.15 K	refractive index, 298.15 K	refractive index, 303.15 K
[3], x1 = 0.1179	887.1	882.58	877.96	873.25	–	–	–	–
[3], x1 = 0.2098	899.23	894.67	890.04	885.33	–	–	–	–
[3], x1 = 0.3078	912.01	907.42	902.81	898.06	–	–	–	–
[3], x1 = 0.4082	924.96	920.33	915.72	910.95	–	–	–	–
[3], x1 = 0.5157	938.67	934.03	929.43	924.67	–	–	–	–
[3], x1 = 0.6172	951.49	946.82	942.24	937.46	–	–	–	–
[3], x1 = 0.7286	965.32	960.65	956.15	951.37	–	–	–	–
[3], x1 = 0.8575	981.16	976.45	971.96	967.26	–	–	–	–
[3], x1 = 0.917	988.36	983.65	979.17	974.46	–	–	–	–
[3], x1 = 1	998.44	993.65	989.15	984.37	–	–	–	–
[4], x1 = 0.1179	–	–	–	–	1.503	1.4997	1.4971	1.4946
[4], x1 = 0.2098	–	–	–	–	1.5056	1.5017	1.4992	1.4966
[4], x1 = 0.3078	–	–	–	–	1.5083	1.5038	1.5012	1.4987
[4], x1 = 0.4082	–	–	–	–	1.511	1.5059	1.5033	1.5008
[4], x1 = 0.5157	–	–	–	–	1.5138	1.5081	1.5054	1.5029
[4], x1 = 0.6172	–	–	–	–	1.5163	1.5099	1.5061	1.5049
[4], x1 = 0.7286	–	–	–	–	1.5192	1.5122	1.5095	1.5071
[4], x1 = 0.8575	–	–	–	–	1.5223	1.5145	1.5118	1.5094
[4], x1 = 0.917	–	–	–	–	1.5236	1.5155	1.5135	1.5104
[4], x1 = 1	–	–	–	–	1.5256	1.5169	1.5141	1.5117

Cc1ccccc1C [1,2-dimethylbenzene] + COc1ccccc1
x2 = 0
Details	mass density, 288.15 K [kg/m3]	mass density, 293.15 K [kg/m3]	mass density, 298.15 K [kg/m3]	mass density, 303.15 K [kg/m3]	refractive index, 288.15 K	refractive index, 293.15 K	refractive index, 298.15 K	refractive index, 303.15 K
[3]	883.29	879.08	875.53	870.73	–	–	–	–
[4]	–	–	–	–	1.5072	1.5047	1.5018	1.5

Cc1cccc(C)c1 [1,3-dimethylbenzene] + COc1ccccc1
x2 = 0
Details	mass density, 288.15 K [kg/m3]	mass density, 293.15 K [kg/m3]	mass density, 298.15 K [kg/m3]	mass density, 303.15 K [kg/m3]	refractive index, 288.15 K	refractive index, 293.15 K	refractive index, 298.15 K	refractive index, 303.15 K
[3]	868.32	864.05	859.77	855.47	–	–	–	–
[4]	–	–	–	–	1.4997	1.4973	1.4944	1.4925

Cc1ccc(C)cc1 [1,4-dimethylbenzene] + COc1ccccc1
x2 = 0
Details	mass density, 288.15 K [kg/m3]	mass density, 293.15 K [kg/m3]	mass density, 298.15 K [kg/m3]	mass density, 303.15 K [kg/m3]	refractive index, 288.15 K	refractive index, 293.15 K	refractive index, 298.15 K	refractive index, 303.15 K
[3]	865.25	860.92	856.62	852.25	–	–	–	–
[4]	–	–	–	–	1.4983	1.4958	1.4929	1.4915
